Data from ChEMBL document CHEMBL5532759, “Discovery of dibenzylbutane lignan LCA derivatives as potent anti-inflammatory agents” (RSC Med Chem, 2024).
Activity calls are given as the source filed them. The rule behind the calls is not given here.

Assays:
[1] = Cytotoxicity against mouse RAW264.7 cells assessed as survival rate at 20 uM incubated for 24 hrs by CCK-8 assay relative to control (reference value: 100 %); assay type: toxicity, cell-based; conditions: read-out: Survival
RAW264.7 [2] = assay: Antiinflammatory activity in LPS-induced mouse RAW264.7 cells assessed as inhibition of NO release at 20 uM preincubated for 4 hrs followed by LPS addition for 24 hrs by Griess reagent based assay relative to control (reference value: 100 %); assay type: functional; set-up: scale not given: the % may be the effect or the level left; conditions: time 28 hrs
RAW264.7 [3] = assay: Antiinflammatory activity in LPS-induced mouse RAW264.7 cells assessed as inhibition of NO release preincubated for 4 hrs followed by LPS addition for 24 hrs by Griess reagent based assay; assay type: functional, cell-based; conditions: dose 2.5-20 µM, time 28.0 hrs
Mus musculus [4] = assay: Antiinflammatory activity against carrageenan-induced paw edema in ICR mouse assessed as reduction in paw thickness at 20 mg/kg, ip measured at 60 to 240 mins; assay type: functional, organism-based; conditions: time 60-240 min
Mus musculus [5] = assay: Antiinflammatory activity against carrageenan-induced paw edema in ICR mouse assessed as inhibition of paw swelling at 20 mg/kg, ip measured after 120 min; assay type: functional, organism-based
RAW264.7 [6] = assay: Antiinflammatory activity in LPS-induced mouse RAW264.7 cells assessed as inhibition of IL-1beta secretion at 2.5 to 20 uM preincubated for 1 hr followed by LPS addition for 24 hrs by ELISA method; assay type: functional, cell-based; conditions: dose 2.5-20 µM, time 25.0 hrs
RAW264.7 [7] = assay: Antiinflammatory activity in LPS-induced mouse RAW264.7 cells assessed as inhibition of IL-6 secretion at 2.5 to 20 uM preincubated for 1 hr followed by LPS addition for 24 hrs by ELISA method; assay type: functional, cell-based; conditions: dose 2.5-20 µM, time 25.0 hrs
RAW264.7 [8] = assay: Antiinflammatory activity in LPS-induced mouse RAW264.7 cells assessed as inhibition of TNFalpha secretion at 2.5 to 20 uM preincubated for 1 hr followed by LPS addition for 24 hrs by ELISA method; assay type: functional, cell-based; conditions: dose 2.5-20 µM, time 25.0 hrs
RAW264.7 [9] = assay: Antiinflammatory activity in LPS-induced mouse RAW264.7 cells assessed as reduction in IL-1beta mRNA level preincubated for 1 hr followed by LPS addition for 24 hrs by RT-qPCR analysis; assay type: functional, cell-based; conditions: dose 10-20 µM, time 25.0 hrs
RAW264.7 [10] = assay: Antiinflammatory activity in LPS-induced mouse RAW264.7 cells assessed as reduction in IL-6 mRNA level preincubated for 1 hr followed by LPS addition for 24 hrs by RT-qPCR analysis; assay type: functional, cell-based; conditions: dose 10-20 µM, time 25.0 hrs
RAW264.7 [11] = assay: Antiinflammatory activity in LPS-induced mouse RAW264.7 cells assessed as reduction in TNFalpha mRNA level incubated for 1 hr followed by LPS addition for 24 hrs by RT-qPCR analysis; assay type: functional, cell-based; conditions: dose 10-20 µM, time 25.0 hrs
RAW264.7 [12] = assay: Inhibition of NF-kappaB signaling in LPS-induced mouse RAW264.7 cells assessed as reduction in IkBalpha degradation preincubated for 1 hr followed by LPS addition for 1 hr by Western blot analysis; assay type: cell-based; conditions: dose 10-20 µM, time 2.0 hrs
RAW264.7 [13] = assay: Inhibition of NF-kB signaling in LPS-induced mouse RAW264.7 cells assessed as reduction in p65 phosphorylation preincubated for 1 hr followed by LPS addition for 1 hr by Western blot analysis; assay type: cell-based; conditions: dose 10-20 µM, time 2.0 hrs
RAW264.7 [14] = assay: Inhibition of NF-kB p65 nuclear translocation from cytoplasm to nucleus in mouse RAW264.7 cells at 20 uM preincubated for 1 hr followed by LPS addition for 4 hrs by immunofluorescence assay; assay type: functional, cell-based; conditions: time 5.0 hrs
Mus musculus [15] = assay: Antiinflammatory activity against carrageenan-induced paw edema in ICR mouse assessed as reduction in paw thickness at 5 to 20 mg/kg, ip measured at 60 to 240 mins; assay type: functional, organism-based; conditions: dose 5-20 mg/kg, time 60-240 min
Mus musculus [16] = assay: Antiinflammatory activity against carrageenan-induced paw edema in ip dosed ICR mouse assessed as reduction in IL-1beta level by ELISA method; assay type: functional, organism-based; conditions: dose 5-20 mg/kg
Mus musculus [17] = assay: Antiinflammatory activity against carrageenan-induced paw edema in ip dosed ICR mouse assessed as reduction in IL-6 level by ELISA method; assay type: functional, organism-based; conditions: dose 5-20 mg/kg
Mus musculus [18] = assay: Antiinflammatory activity against carrageenan-induced paw edema in ip dosed ICR mouse assessed as reduction in TNF-alpha level by ELISA method; assay type: functional, organism-based; conditions: dose 5-20 mg/kg
Mus musculus [19] = assay: Antiinflammatory activity against carrageenan-induced paw edema in ICR mouse assessed as inhibition of paw swelling at 5 to 20 mg/kg, ip measured after 120 min; assay type: functional, organism-based; conditions: dose 5-20 mg/kg

SMILES | viability at 24 h, 20 µM [1] | Activity (RAW264.7 [2]) | also measured
COc1ccc(CNC(=O)[C@@H](Cc2cc(OC)c(O)c(OC)c2)[C@@H](Cc2cc(OC)c(O)c(OC)c2)C(=O)NCc2ccc(OC)cc2OC)c(OC)c1 | 98.4% | 47.6% | 
COc1cc(C[C@H](C(=O)NCc2ccc(S(C)(=O)=O)cc2)[C@@H](Cc2cc(OC)c(O)c(OC)c2)C(=O)NCc2ccc(S(C)(=O)=O)cc2)cc(OC)c1O | 70% | 63.1% | 
COc1cc(C[C@H](C(=O)NCc2cc(C)ccn2)[C@@H](Cc2cc(OC)c(O)c(OC)c2)C(=O)NCc2cc(C)ccn2)cc(OC)c1O | 83% | 71.5% | 
COc1cc(C[C@H](C(=O)NCc2ccccc2F)[C@@H](Cc2cc(OC)c(O)c(OC)c2)C(=O)NCc2ccccc2F)cc(OC)c1O | 105% | 47.3% | 
COc1cccc(CNC(=O)[C@@H](Cc2cc(OC)c(O)c(OC)c2)[C@@H](Cc2cc(OC)c(O)c(OC)c2)C(=O)NCc2cccc(OC)c2)c1 | 100% | 44.2% | 
COc1cc(/C=C/C(=O)OC[C@H](Cc2cc(OC)c(O)c(OC)c2)[C@@H](COC(=O)/C=C/c2ccc(O)c(OC)c2)Cc2cc(OC)c(O)c(OC)c2)ccc1O | 82.2% | 29.5% | inhibition (RAW264.7 [3]): Dose-Dependent Effect; Activity (Mus musculus [4]): Active; inhibition (Mus musculus [5]): Active
COc1cc(C[C@H](C(=O)NCc2cccc(F)c2)[C@@H](Cc2cc(OC)c(O)c(OC)c2)C(=O)NCc2cccc(F)c2)cc(OC)c1O | 99.4% | 41.9% | 
COc1cc(C[C@H](C(=O)NCc2ccc(F)cc2)[C@@H](Cc2cc(OC)c(O)c(OC)c2)C(=O)NCc2ccc(F)cc2)cc(OC)c1O | 103% | 43.1% | 
COc1cc(C[C@H](C(=O)NCc2ccc(C(F)(F)F)cc2)[C@@H](Cc2cc(OC)c(O)c(OC)c2)C(=O)NCc2ccc(C(F)(F)F)cc2)cc(OC)c1O | 99.1% | 31.1% | Activity (RAW264.7 [3]): Dose-Dependent Effect; Activity (RAW264.7 [6]): Active; Activity (RAW264.7 [7]): Active; Activity (RAW264.7 [8]): Active; Activity (RAW264.7 [9]): Dose-Dependent Effect; Activity (RAW264.7 [10]): Dose-Dependent Effect; Activity (RAW264.7 [11]): Dose-Dependent Effect; inhibition (RAW264.7 [12]): Dose-Dependent Effect; inhibition (RAW264.7 [13]): Dose-Dependent Effect; inhibition (RAW264.7 [14]): Active; Activity (Mus musculus [15]): Active; Activity (Mus musculus [16]): Dose-Dependent Effect; Activity (Mus musculus [17]): Dose-Dependent Effect; Activity (Mus musculus [18]): Dose-Dependent Effect; inhibition (Mus musculus [19]): Active
COc1cc(C[C@H](C(=O)NCc2cccc(C)n2)[C@@H](Cc2cc(OC)c(O)c(OC)c2)C(=O)NCc2cccc(C)n2)cc(OC)c1O | 93.3% | 44.7% | 
COc1cc(C[C@H](C(=O)NCc2ccncc2)[C@@H](Cc2cc(OC)c(O)c(OC)c2)C(=O)NCc2ccncc2)cc(OC)c1O | 69.5% | 46.5% | 
COc1cc(C[C@H](C(=O)NCc2cc(F)cc(F)c2)[C@@H](Cc2cc(OC)c(O)c(OC)c2)C(=O)NCc2cc(F)cc(F)c2)cc(OC)c1O | 97.8% | 43.9% | 
COc1cc(CNC(=O)[C@@H](Cc2cc(OC)c(O)c(OC)c2)[C@@H](Cc2cc(OC)c(O)c(OC)c2)C(=O)NCc2cc(OC)cc(OC)c2)cc(OC)c1 | 99.1% | 49.3% | 
COc1cc(C[C@H](C(=O)NCc2ccccc2)[C@@H](Cc2cc(OC)c(O)c(OC)c2)C(=O)NCc2ccccc2)cc(OC)c1O | 103% | 42.6% | 
COc1cc(C[C@H](C(=O)NCc2cccnc2C(F)(F)F)[C@@H](Cc2cc(OC)c(O)c(OC)c2)C(=O)NCc2cccnc2C(F)(F)F)cc(OC)c1O | 90.7% | 55.1% | 
COc1cc(C[C@H](C(=O)NCc2ccncc2F)[C@@H](Cc2cc(OC)c(O)c(OC)c2)C(=O)NCc2ccncc2F)cc(OC)c1O | 95.9% | 67.9% | 
COc1cc(C[C@H](C(=O)NCc2ccc(F)cc2F)[C@@H](Cc2cc(OC)c(O)c(OC)c2)C(=O)NCc2ccc(F)cc2F)cc(OC)c1O | 97.5% | 46.5% | 
C[C@@H]1C[C@H]2[C@@H]3CCC4=CC(=O)C=C[C@]4(C)[C@@]3(F)[C@@H](O)C[C@]2(C)[C@@]1(O)C(=O)CO [DEXAMETHASONE] | 94.8% | 45.9% | 
COc1cc(C[C@H](C(=O)NCc2ccc(F)cn2)[C@@H](Cc2cc(OC)c(O)c(OC)c2)C(=O)NCc2ccc(F)cn2)cc(OC)c1O | 81.3% | 47.1% | 
COc1cc(C[C@H](C(=O)NCc2ncccc2C)[C@@H](Cc2cc(OC)c(O)c(OC)c2)C(=O)NCc2ncccc2C)cc(OC)c1O | 85.1% | 66.3% | 
COc1ccc(CNC(=O)[C@@H](Cc2cc(OC)c(O)c(OC)c2)[C@@H](Cc2cc(OC)c(O)c(OC)c2)C(=O)NCc2ccc(OC)cc2)cc1 | 99.9% | 45.9% | 
COc1cc(C[C@H](C(=O)NCc2ccc(C)cc2)[C@@H](Cc2cc(OC)c(O)c(OC)c2)C(=O)NCc2ccc(C)cc2)cc(OC)c1O | 95.6% | 47% | 
COc1cc(C[C@H](C(=O)NCc2cccnc2OC)[C@@H](Cc2cc(OC)c(O)c(OC)c2)C(=O)NCc2cccnc2OC)cc(OC)c1O | 69.9% | 51.1% | 
COc1cc(C[C@H](C(=O)NCc2ccccn2)[C@@H](Cc2cc(OC)c(O)c(OC)c2)C(=O)NCc2ccccn2)cc(OC)c1O | 92.2% | 48.1% | 
COc1cc(CNC(=O)[C@@H](Cc2cc(OC)c(O)c(OC)c2)[C@@H](Cc2cc(OC)c(O)c(OC)c2)C(=O)NCc2ccc(O)c(OC)c2)ccc1O | 96.6% | 49% | 
